Consider 21 compounds from patent US20160002204A1 (Board of Regents, The University of Texas System, priority 2014, published 2016).

For test [1], the system named is A549 cells. The test is described as follows: A549 proliferation (viability) assay, Cell Titer Fluor, 72 hours. The class given is cell-based. The following applies: Homo sapiens. The gist of the method: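 A549 cells seeded at 1000 cells/well, left 24 h, then exposed to compound for 72 h at 37 °C, 5% CO2, final DMSO 0.5% (v/v). Viability read by Cell Titer Fluor fluorescence; EC50 from four-parameter logistic fit.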

Test [2] addresses T1, GLS1 (purified recombinant human GAC) (Homo sapiens, UniProt O94925).
T1 sequence (O94925 55-598 isoform O94925-3 limits assumed): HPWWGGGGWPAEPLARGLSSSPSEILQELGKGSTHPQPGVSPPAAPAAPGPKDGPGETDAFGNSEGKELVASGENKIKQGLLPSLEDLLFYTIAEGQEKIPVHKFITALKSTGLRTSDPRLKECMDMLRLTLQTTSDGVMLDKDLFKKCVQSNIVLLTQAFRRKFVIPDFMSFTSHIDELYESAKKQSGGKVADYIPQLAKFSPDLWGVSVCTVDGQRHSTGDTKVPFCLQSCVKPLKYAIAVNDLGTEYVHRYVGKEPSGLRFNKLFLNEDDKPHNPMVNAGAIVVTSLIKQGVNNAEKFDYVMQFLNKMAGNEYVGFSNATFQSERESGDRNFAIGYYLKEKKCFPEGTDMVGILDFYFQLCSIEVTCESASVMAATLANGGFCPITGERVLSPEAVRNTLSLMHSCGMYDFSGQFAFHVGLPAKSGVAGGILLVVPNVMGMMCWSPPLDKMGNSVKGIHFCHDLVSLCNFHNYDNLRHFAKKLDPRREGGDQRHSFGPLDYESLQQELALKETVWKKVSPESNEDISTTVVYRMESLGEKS
Nature of the test: GLS1 enzymatic activity assay (dual-coupled, Amplex UltraRed/resorufin). The class given is biochemical. The gist of the method: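 GAC activity measured by coupling glutamate to glutamate oxidase and HRP, generating resorufin from Amplex UltraRed. Enzyme (2 nM) preincubated with 50 mM potassium phosphate 10 min at room temperature, then inhibitor 10 min; 1 mM glutamine substrate, 1% DMSO. Fluorescence 530/590 nm, kinetic or 20-min endpoint; IC50 from four-parameter logistic fit.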

In test [1], `O=C(Nc1ccn(CCC(F)Cn2cc(C(=O)NCc3cccc(OC(F)(F)F)c3)nn2)c(=O)c1F)C(=O)N1CCOCC1` (stereo not drawn) [Example 417, 1-(2-fluoro-4-{3-fluoro-4-[2-(morpholin-4-yl)-2-oxoacetamido]-2-oxo-1,2-dihydropyridin-1-yl}butyl)-N-{[3-(trifluoromethoxy)phenyl]methyl}-1H-1,2,3-triazole-4-carboxamide] displayed an EC50 of 500 to 5000 nM. Further, in test [2], the IC50 was 100 to 500 nM.
The like results for `O=C(NCc1cccc(OC(F)(F)F)c1)c1cn(CCCCn2ccc(NC(=O)C(F)c3ccccc3)cc2=O)nn1` (stereo not drawn) [Example 167, 1-{4-[4-(2-fluoro-2-phenylacetamido)-2-oxo-1,2-dihydropyridin-1-yl]butyl}-N-{[3-(trifluoromethoxy)phenyl]methyl}-1H-1,2,3-triazole-4-carboxamide] were, in that order, under 100 nM and under 100 nM.
In the case of `O=C(Nc1ccn(CCC(F)Cn2cc(C(=O)NCc3cncc(C(F)(F)F)c3)nn2)c(=O)c1F)OC1CCC1` (stereo not drawn) [Example 398, cyclobutyl N-(3-fluoro-1-{3-fluoro-4-[4-({[5-(trifluoromethyl)pyridin-3-yl]methyl}carbamoyl)-1H-1,2,3-triazol-1-yl]butyl}-2-oxo-1,2-dihydropyridin-4-yl)carbamate], the EC50 in test [1] is under 100 nM. The IC50 in test [2] was under 100 nM.
As to `O=C(Cc1cccc(OC(F)(F)F)c1)Nc1ccc(CCCCn2ccc(NC(=O)CO)nc2=O)nn1` [Example 113, 2-hydroxy-N-{2-oxo-1-[4-(6-{2-[3-(trifluoromethoxy)phenyl]acetamido}pyridazin-3-yl)butyl]-1,2-dihydropyrimidin-4-yl}acetamide], the EC50 in test [1] fell in the range of 500 to 5000 nM. Also, the IC50 in test [2] is under 100 nM.
Take `CC(=O)OC(C(=O)Nc1ccn(CC[C@H](F)Cn2cc(C(=O)NCc3cccc(OC(F)(F)F)c3)nn2)c(=O)c1F)c1ccccc1` (stereo partly drawn) [Example 305, (S)-[(3-fluoro-1-{3-fluoro-4-[4-({[3-(trifluoromethoxy)phenyl]methyl}carbamoyl)-1H-1,2,3-triazol-1-yl]butyl}-2-oxo-1,2-dihydropyridin-4-yl)carbamoyl](phenyl)methyl acetate]: in test [1], the EC50 is under 100 nM. Besides, the IC50 in test [2] was under 100 nM.
In test [1], `O=C(Cc1ccccc1)Nc1ccn(CCC(F)Cn2cc(C(=O)NCc3cccc(OC(F)(F)F)c3)nn2)c(=O)c1F` (stereo not drawn) [Example 180] yielded an EC50 of under 100 nM. The IC50 in test [2] is under 100 nM.
In test [1], `O=C(NCC1CCCCC1)c1ccn(CCCCn2cc(C(=O)NCc3cccc(OC(F)(F)F)c3)nn2)c(=O)c1` [Example 63, N-(cyclohexylmethyl)-2-oxo-1-{4-[4-({[3-(trifluoro-methoxy)phenyl]methyl}carbamoyl)-1H-1,2,3-triazol-1-yl]butyl}-1,2-dihydropyridine-4-carboxamide] showed an EC50 of 100 to 500 nM. The IC50 in test [2] is under 100 nM.
The like results for `CC(C)(CO)CNC(=O)c1cn(CC(F)CCn2ccc(NC(=O)CN3CCN(C(=O)OC(C)(C)C)CC3)cc2=O)nn1` (stereo not drawn) [Example 406, tert-butyl 4-({[1-(3-fluoro-4-{4-[(3-hydroxy-2,2-dimethylpropyl)carbamoyl]-1H-1,2,3-triazol-1-yl}butyl)-2-oxo-1,2-dihydropyridin-4-yl]carbamoyl}methyl)piperazine-1-carboxylate] were, in that order, over 5000 nM and 500 to 5000 nM.
With `C[C@H]1CCN(C(=O)C(=O)Nc2ccn(CCC(F)Cn3cc(C(=O)NCc4cc(OC(F)(F)F)ccc4F)nn3)c(=O)c2F)C1` (stereo partly drawn) [Example 432, 1-[2-fluoro-4-(3-fluoro-4-{2-[(3S)-3-methylpyrrolidin-1-yl]-2-oxoacetamido}-2-oxo-1,2-dihydropyridin-1-yl)butyl]-N-{[2-fluoro-5-(trifluoromethoxy)phenyl]methyl}-1H-1,2,3-triazole-4-carboxamide], in test [1], the EC50 was under 100 nM. Besides, the IC50 in test [2] is under 100 nM.
In test [1], `O=C(CC1CCC1)Nc1ccn(CCC(F)Cn2cc(C(=O)NCc3cc(C(F)(F)F)ccn3)nn2)c(=O)c1F` (stereo not drawn) [Example 332, 1-{4-[4-(2-cyclobutylacetamido)-3-fluoro-2-oxo-1,2-dihydropyridin-1-yl]-2-fluorobutyl}-N-{[4-(trifluoromethyl)pyridin-2-yl]methyl}-1H-1,2,3-triazole-4-carboxamide] gave an EC50 of under 100 nM. Besides, the IC50 in test [2] is under 100 nM.
Regarding `O=C(Cc1cccc(OC(F)(F)F)c1)Nc1ccn(CCCCn2cc(C(=O)NCc3ccccn3)nn2)c(=O)c1` [Example 10, 1-(4-(2-oxo-4-(2-(3-(trifluoromethoxy)phenyl)acetamido)pyridin-1(2H)-yl)butyl)-N-(pyridin-2-ylmethyl)-1H-1,2,3-triazole-4-carboxamide], the EC50 in test [1] is 500 to 5000 nM. Also, the IC50 in test [2] is under 100 nM.
On the same counts, the results for `O=C(Nc1ccn(CCC(F)Cn2cc(C(=O)NCc3cccc(OC(F)(F)F)c3)nn2)c(=O)n1)OCc1cccc(OC(F)(F)F)c1` (stereo not drawn) [Example 491, 3-(trifluoromethoxy)benzyl(1-(3-fluoro-4-(4-((3-(trifluoromethoxy)benzyl)carbamoyl)-1H-1,2,3-triazol-1-yl)butyl)-2-oxo-1,2-dihydropyrimidin-4-yl)carbamate] are under 100 nM and under 100 nM.
Compound `Cc1ccc(CNC(=O)c2cn(CC(F)CCn3ccc(NC(=O)CC4CCCC4)cc3=O)nn2)cn1` (stereo not drawn) [Example 199, 1-{4-[4-(2-cyclopentylacetamido)-2-oxo-1,2-dihydropyridin-1-yl]-2-fluorobutyl}-N-[(6-methylpyridin-3-yl)methyl]-1H-1,2,3-triazole-4-carboxamide] came in with an EC50 in test [1] of under 100 nM. In addition, the IC50 in test [2] was under 100 nM.
Regarding `CNC(=O)c1cn(CCCCn2ccc(NC(=O)Cc3cccc(OC(F)(F)F)c3)cc2=O)nn1` [Example 40, N-methyl-1-[4-(2-oxo-4-{2-[3-(trifluoromethoxy)phenyl]acetamido}-1,2-dihydropyridin-1-yl)butyl]-1H-1,2,3-triazole-4-carboxamide], the EC50 in test [1] lay in the range of 500 to 5000 nM. Besides, the IC50 in test [2] is 100 to 500 nM.
`O=C(Cc1ccccc1)Nc1ccc(CCCCn2ccc(NC(=O)[C@@H](O)c3ccccc3)nc2=O)nn1` [Example 22, (S)-2-hydroxy-N-(2-oxo-1-(4-(6-(2-phenylacetamido)pyridazin-3-yl)butyl)-1,2-dihydropyrimidin-4-yl)-2-phenylacetamide] had an EC50 in test [1] of 500 to 5000 nM. Also, in test [2], the IC50 is under 100 nM.
Turning to `O=C(Cc1ccccc1)Nc1ccn(CCC(F)Cn2cc(C(=O)NCc3ccc(C(F)(F)F)nc3)nn2)c(=O)c1F` (stereo not drawn) [Example 367, 1-{2-fluoro-4-[3-fluoro-2-oxo-4-(2-phenylacetamido)-1,2-dihydropyridin-1-yl]butyl}-N-{[6-(trifluoromethyl)pyridin-3-yl]methyl}-1H-1,2,3-triazole-4-carboxamide], the EC50 in test [1] was in the range of 100 to 500 nM. Further, the concentration for half-maximal inhibition (IC50) in test [2] was under 100 nM.
Turning to `CC1(C)CN(CC(=O)Nc2ccn(CCC(F)Cn3cc(C(=O)NCc4cccc(OC(F)(F)F)c4)nn3)c(=O)c2F)CCO1` (stereo not drawn) [Example 294, 1-(4-{4-[2-(2,2-dimethylmorpholin-4-yl)acetamido]-3-fluoro-2-oxo-1,2-dihydropyridin-1-yl}-2-fluorobutyl)-N-{[3-(trifluoromethoxy)phenyl]methyl}-1H-1,2,3-triazole-4-carboxamide], the EC50 in test [1] was under 100 nM. The IC50 in test [2] is under 100 nM.
On to `CC(C)CNC(=O)c1ccn(CCCCn2cc(C(=O)NCc3cccc(OC(F)(F)F)c3)nn2)c(=O)c1` [Example 62, N-(2-methylpropyl)-2-oxo-1-{4-[4-({[3-(trifluoromethoxy)phenyl]methyl}carbamoyl)-1H-1,2,3-triazol-1-yl]butyl}-1,2-dihydropyridine-4-carboxamide], for which, in test [1], the concentration for a half-maximal effect (EC50) lay within 500 to 5000 nM. Also, in test [2], the 50% inhibitory concentration (IC50) fell in the range of 100 to 500 nM.
On the same counts, the results for `CC1CCCN(C(=O)C(=O)Nc2ccn(CCC(F)Cn3cc(C(=O)NCc4cccc(OC(F)(F)F)c4)nn3)c(=O)c2F)C1` (stereo not drawn) [Example 418, 1-(2-fluoro-4-{3-fluoro-4-[2-(3-methylpiperidin-1-yl)-2-oxoacetamido]-2-oxo-1,2-dihydropyridin-1-yl}butyl)-N-{[3-(trifluoromethoxy)phenyl]methyl}-1H-1,2,3-triazole-4-carboxamide] are under 100 nM and under 100 nM.
The like results for `O=C(CN1CCCCC1)Nc1ccn(CCC(F)Cn2cc(C(=O)NCc3cccc(OC(F)(F)F)c3)nn2)c(=O)c1F` (stereo not drawn) [Example 288, 1-(2-fluoro-4-{3-fluoro-2-oxo-4-[2-(piperidin-1-yl)acetamido]-1,2-dihydropyridin-1-yl}butyl)-N-{[3-(trifluoromethoxy)phenyl]methyl}-1H-1,2,3-triazole-4-carboxamide] were, in that order, under 100 nM and under 100 nM.
Take `O=C(Nc1ccn(CCC(F)Cn2cc(C(=O)NCc3cc(C(F)(F)F)ccn3)nn2)c(=O)c1F)OC1CCC1` (stereo not drawn) [Example 377, cyclobutyl N-(3-fluoro-1-{3-fluoro-4-[4-({[4-(trifluoromethyl)pyridin-2-yl]methyl}carbamoyl)-1H-1,2,3-triazol-1-yl]butyl}-2-oxo-1,2-dihydropyridin-4-yl)carbamate]: in test [1], the EC50 was under 100 nM. The IC50 in test [2] was under 100 nM.

One may read the EC50 as the concentration needed to bring the measured effect to its halfway point. Read a low EC50 as a more potent agent. In general, IC50 refers to the concentration needed to halve the response being measured.
